In patent US10538528B2, “5H-pyrrolo[2,3-D]pyrimidin-6(7H)-one derivative” (Taiho Pharmaceutical Co., Ltd., priority 2016, dated 2020):

Legend:
[1] = system: RKO cells (human colon cancer cell lines); assay: Cell growth inhibition study using RKO cells (CellTiter-Glo); format: cell-based; conditions: 72 h, 3 days
Method: The in vitro cell growth inhibition study using RKO cells (human colon cancer cell lines) was conducted as described below.
RKO cells (ATCC, Cat#: CRL-2577) cultured in a MEM medium (GIBCO, Cat#:10370-088) supplemented with 10% FBS, 1 mM L-glutamine (GIBCO, Cat#:25030), and 1 mM sodium pyruvate (GIBCO, Cat#:11360) were seeded in a 96-well flat bottom microplate (COSTAR, Cat#:3904) at 2×10^3 cells (150 μl) and cultured in an incubator containing 5% CO2 at 37° C. for 1 day. The compound according to the present invention subjected to serial dilution with dimethyl sulfoxide or dimethyl sulfoxide alone was added to a MEM medium containing 10% FBS, 1 mM L-glutamine, and 1 mM sodium pyruvate. The resultant medium containing the compound or dimethyl sulfoxide alone was added to the RKO cells in the culture plate by 50 μl/well at the final concentration of the compound to 10, 3, 1, 0.3, 0.1, 0.03, 0.01, 0.003, and 0 μM, respectively. Another RKO cell culture plate separately prepared was allowed to stand at room temperature for 30 minutes, then 100 μl of the medium was removed, and added 50 μl of CellTiter-Glo® 2.0 Assay (Promega, Cat#:G9242) to each well. After the plates were placed in the dark for 10 minutes, the luminescence level derived from viable cells in each well was measured by the Multimode Plate Reader (PerkinElmer, EnSpire). The cells treated with the compound or dimethyl sulfoxide alone were cultured at 37° C. in an incubator containing 5% CO2 for an additional 3 days. After incubation, the culture plate was placed at room temperature for 30 minutes, and 150 μl of the supernatant was removed from each well to adjust the amount of the remaining cell culture solution to 50 μl each. To 50 μl of the remaining cell culture solution, the equivalent amount of CellTiter-Glo® 2.0 Assay was added. After the cell culture plate was placed in the dark for 10 minutes, the luminescence level derived from viable cells in each well was assayed with the use of the Multimode Plate Reader. The cell growth rate was calculated by the formulae shown below and the concentration at which the cell growth rate became 50%; i.e., the concentration of the compound according to the present invention at which cell growth would be inhibited by 50% was determined (GI50 (nM)). Cell growth rate (%)=(T−C0)/(C−C0)×100, provided that T is equal to or greater than C0(T≥C0) Cell growth rate (%)=(T−C0)/C0×100, provided that T is less than C0(T<C0) C0: Luminescence level in each well when the compound is added (count per second) C: Luminescence level in each well when dimethyl sulfoxide is added alone (count per second) T: Luminescence level in each well when the test compound is added (count per second)
As control compounds, conventional Comparative Example A (WO 2010/056563 (Example 31)) and Comparative Example B having inhibitory activity against Akt were used.
The GI50 levels of representative compounds according to the present invention and reference compounds in RKO cells were evaluated, and the results are shown in Table 5.

[2] = molecular target: Rsk1 (Homo sapiens (Human), UniProt Q15418); assay: Inhibitory effects on Rsk1 kinase activity (QSS Assist FP assay kit); format: biochemical; conditions: Rsk1, ATP 30 μM; read-out: Rsk inhibitory activity IC50
Sequence of Rsk1 (Q15418 whole entry): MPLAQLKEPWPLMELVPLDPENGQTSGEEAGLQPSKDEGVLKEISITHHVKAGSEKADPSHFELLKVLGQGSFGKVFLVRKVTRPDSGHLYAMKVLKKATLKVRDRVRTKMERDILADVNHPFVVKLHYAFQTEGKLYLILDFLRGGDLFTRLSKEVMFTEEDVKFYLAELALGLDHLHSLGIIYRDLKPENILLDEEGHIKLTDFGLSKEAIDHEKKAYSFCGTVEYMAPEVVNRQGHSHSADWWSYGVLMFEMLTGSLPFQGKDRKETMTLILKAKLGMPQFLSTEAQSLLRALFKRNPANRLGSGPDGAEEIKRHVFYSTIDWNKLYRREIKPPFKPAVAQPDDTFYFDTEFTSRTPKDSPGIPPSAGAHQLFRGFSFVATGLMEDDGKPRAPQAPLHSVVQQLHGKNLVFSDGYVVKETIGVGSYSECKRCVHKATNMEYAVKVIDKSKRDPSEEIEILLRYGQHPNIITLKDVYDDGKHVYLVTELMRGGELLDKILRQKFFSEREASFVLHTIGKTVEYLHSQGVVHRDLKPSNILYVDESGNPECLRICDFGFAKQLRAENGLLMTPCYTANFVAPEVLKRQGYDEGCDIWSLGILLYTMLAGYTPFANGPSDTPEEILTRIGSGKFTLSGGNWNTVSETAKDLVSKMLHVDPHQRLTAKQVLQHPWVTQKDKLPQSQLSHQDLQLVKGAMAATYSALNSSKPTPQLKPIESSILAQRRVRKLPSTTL
Method: Inhibitory activity of the compound according to the present invention on Rsk1 kinase activity in vitro was assayed using the QSS Assist™ FP assay kit (Carna Biosciences, Inc.).
In the inhibition assay of inhibitory activity of the compound, the test compound was diluted by serial dilution with dimethyl sulfoxide (DMSO). Subsequently, an Rsk1 protein, a substrate peptide (final concentration: 100 nM), magnesium chloride (final concentration: 10 mM), ATP (final concentration: 30 μM), and the solution of the test compound in DMSO (DMSO final concentration: 5%) were added to the kinase reaction buffer (20 mM HEPES (pH 7.4), 2 mM dithiothreitol, 0.01% Tween-20), and the mixture was incubated at 25° C. for 40 minutes to perform the kinase reaction. The IMAP Progressive Binding Reagent diluted to 400-fold with the IMAP Progressive Binding Buffer A (Molecular Devices, LLC) was added to terminate the kinase reaction.

[3] = molecular target: human Akt1 (Homo sapiens (Human), UniProt P31749); assay: Inhibitory effects on Akt1 kinase activity (TR-FRET, biotinylated Crosstide); format: biochemical; conditions: Akt1, ATP 150 μM, pre-incubation 120 minutes at 25° C.; read-out: AKT inhibitory activity IC50
Sequence of human Akt1 (P31749 whole entry): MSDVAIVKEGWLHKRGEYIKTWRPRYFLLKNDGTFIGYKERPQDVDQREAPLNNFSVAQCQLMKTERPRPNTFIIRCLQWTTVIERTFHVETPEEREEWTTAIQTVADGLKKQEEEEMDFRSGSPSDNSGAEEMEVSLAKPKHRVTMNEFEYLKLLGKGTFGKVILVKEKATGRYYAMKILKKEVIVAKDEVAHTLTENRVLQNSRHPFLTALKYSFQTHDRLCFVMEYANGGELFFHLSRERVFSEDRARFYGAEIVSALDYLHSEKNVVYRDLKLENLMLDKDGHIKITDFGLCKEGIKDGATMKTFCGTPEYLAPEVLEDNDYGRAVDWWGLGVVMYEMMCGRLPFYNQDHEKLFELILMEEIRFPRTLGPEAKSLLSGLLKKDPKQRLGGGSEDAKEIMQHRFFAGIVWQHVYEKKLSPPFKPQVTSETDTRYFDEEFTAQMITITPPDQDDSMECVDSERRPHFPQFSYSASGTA
Method: Akt1 was prepared and assays of inhibitory activity of the compound according to the present invention against Akt1 kinase activity in vitro were conducted according to the method described in Biochem. J., vol. 385, pp. 399-408, 2005 and Cancer Res., vol. 68, pp. 2366-2374, 2008. In the preparation of Akt1 protein, human Akt1 tagged with the middle T antigen was expressed in an insect cell Sf9, Akt1 was prepared through affinity purification and activation by PDK1, and the resultant was stored at −80° C. until the inhibition assays of the compounds. In the inhibition assay of the compounds, Akt1 and the compound according to the present invention were subjected to pre-incubation at 25° C. for 120 minutes in a reaction buffer (15 mM Tris-HCl, pH 7.5, 0.01% Tween-20, 2 mM DTT). Subsequently, biotinylated Crosstide (biotin-[…], Millipore), MgCl2, and ATP were added as substrates at the final concentration of 500 nM, 10 mM, and 150 μM, respectively, and the reaction was allowed to proceed at 25° C. for 60 minutes. EDTA was added to the final concentration of 40 mM to terminate the reaction, a detection liquid containing the Eu-anti-phospho-Crosstide antibody (PerkinElmer) and SureLight APC-SA (PerkinElmer) at the final concentration of 0.5 nM and 62.5 nM, respectively was added, and the reaction was allowed to proceed at room temperature for 2 hours. In the end, the fluorescence levels irradiated with an excitation light of 337 nm were assayed at two different wavelength levels (i.e., 620 nm and 665 nm) using PI-HERAstar FS (BMG LABTECH) or PHERAstar (BMG LABTECH). The level of the phosphorylation reaction was determined on the basis of the ratio of fluorescence levels at two wavelength levels, and the concentration of the compound at which phosphorylation could be inhibited by 50% was defined as the IC50 level (nM) and shown in Table 2.
As reference compounds, conventional Comparative Example A (WO 2010/056563 (Example 31)) and Comparative Example B having inhibitory activity against Akt were used.

[4] = molecular target: S6K1 (Homo sapiens (Human), UniProt P23443); assay: Inhibitory effects on S6K1 kinase activity (QSS Assist FP assay kit); format: biochemical; conditions: S6K1, ATP 25 μM; read-out: S6K inhibitory activity IC50
Sequence of S6K1 (P23443 whole entry): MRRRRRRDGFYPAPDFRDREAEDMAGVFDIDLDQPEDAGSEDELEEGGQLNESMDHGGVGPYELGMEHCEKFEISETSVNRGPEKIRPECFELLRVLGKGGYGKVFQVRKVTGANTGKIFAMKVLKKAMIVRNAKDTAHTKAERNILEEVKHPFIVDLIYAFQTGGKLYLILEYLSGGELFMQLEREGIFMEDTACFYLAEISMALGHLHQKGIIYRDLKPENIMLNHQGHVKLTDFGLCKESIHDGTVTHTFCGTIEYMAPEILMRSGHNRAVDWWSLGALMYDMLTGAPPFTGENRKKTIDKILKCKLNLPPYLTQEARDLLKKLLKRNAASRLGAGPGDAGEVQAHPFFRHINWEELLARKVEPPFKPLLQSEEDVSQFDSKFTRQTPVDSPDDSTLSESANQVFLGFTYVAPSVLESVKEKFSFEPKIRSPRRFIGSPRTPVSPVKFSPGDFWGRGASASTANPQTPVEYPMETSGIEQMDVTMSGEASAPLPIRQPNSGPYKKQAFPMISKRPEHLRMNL
Method: Inhibitory activity of the compound according to the present invention on S6K1 kinase activity in vitro was assayed using the QSS Assist™ FP assay kit (Carna Biosciences, Inc.).
In the inhibition assay for inhibitory activity of the compound, the test compound was diluted by serial dilution with dimethyl sulfoxide (DMSO). Subsequently, an S6K protein, a substrate peptide (final concentration: 100 nM), magnesium chloride (final concentration: 5 mM), ATP (final concentration: 25 μM), and the solution of the test compound in DMSO (final DMSO concentration: 5%) were added to the kinase reaction buffer (20 mM HEPES (pH 7.4), 2 mM dithiothreitol, 0.01% Tween-20), and the mixture was incubated at 25° C. for 30 minutes to perform the kinase reaction. The IMAP Progressive Binding Reagent diluted to 400-fold with the IMAP Progressive Binding Buffer A (Molecular Devices, LLC) was added thereto to terminate the kinase reaction. The reaction product was allowed to stand at room temperature in the dark for 120 minutes and assayed with the use of PHERAstar (BMG LABTECH; excitation wavelength: 485 nm; detection wavelength: 520 nm). The level of phosphorylation reaction was determined based on the degree of fluorescence polarization, and the concentration of the compound at which phosphorylation could be inhibited by 50% was defined as the IC50 level (nM) and shown in Table 4.

Row | SMILES | GI50 [1] | IC50 [2] | IC50 [3] | IC50 [4]
1 | CC1C(=O)Nc2ncnc(N3CCC(c4nc(-c5nccs5)ccc4NCCN4CCCC4)CC3)c21 (stereo not shown) [Compound 24, 5-Methyl-4-(4-(3-((2-(pyrrolidin-1-yl)ethyl)amino)-6-(thiazol-2-yl)pyridin-2-yl)piperidin-1-yl)-5H-pyrrolo[2,3-d]pyrimidin-6(7H)-one] | 130 nM |  | 1.9 nM | 0.6 nM
2 | CC1C(=O)Nc2ncnc(N3CCC(c4nc(-c5ccoc5)ccc4NCCN4CCCC4)CC3)c21 (stereo not shown) [Compound 14, 4-(4-(6-(Furan-3-yl)-3-((2-(pyrrolidin-1-yl)ethyl)amino)pyridin-2-yl)piperidin-1-yl)-5-methyl-5H-pyrrolo[2,3-d]pyrimidin-6(7H)-one] | 118 nM | 1.7 nM | 0.5 nM | 0.9 nM
3 | CC(C)(C)NCCNc1ccc(-c2cncc(F)c2)nc1C1CCN(c2ncnc3c2C(C)(C)C(=O)N3)CC1 [Compound 1, 4-(4-(5-((2-(Tert-butylamino)ethyl)amino)-5′-fluoro-[2,3′-bipyridin]-6-yl)piperidin-1-yl)-5,5-dimethyl-5H-pyrrolo[2,3-d]pyrimidin-6(7H)-one] | 136 nM | 1.5 nM | 6.8 nM | 0.4 nM
4 | COc1cncc(-c2ccc(NCCNC(C)C)c(C3CCN(c4ncnc5c4C(C)C(=O)N5)CC3)n2)c1 (stereo not shown) [Compound 15, 4-(4-(5-((2-(Isopropylamino)ethyl)amino)-5′-methoxy-[2,3′-bipyridin]-6-yl)piperidin-1-yl)-5-methyl-5H-pyrrolo[2,3-d]pyrimidin-6(7H)-one] | 122 nM | 1.1 nM | 2.1 nM | 0.7 nM
5 | CC(C)(C)NCCNc1ccc(-c2nnc(C(F)(F)F)o2)nc1C1CCN(c2ncnc3c2C(C)(C)C(=O)N3)CC1 [Compound 32, 4-(4-(3-((2-(Tert-butylamino)ethyl)amino)-6-(5-(trifluoromethyl)-1,3,4-oxadiazol-2-yl)pyridin-2-yl)piperidin-1-yl)-5,5-dimethyl-5H-pyrrolo[2,3-d]pyrimidin-6(7H)-one] | 89 nM |  |  | 
6 | CC1C(=O)Nc2ncnc(N3CCC(c4nc(-c5ccnc(F)c5)ccc4NCCN4CCCC4)CC3)c21 (stereo not shown) [Compound 13, 4-(4-(2′-Fluoro-5-((2-(pyrrolidin-1-yl)ethyl)amino)-[2,4′-bipyridin]-6-yl)piperidin-1-yl)-5-methyl-5H-pyrrolo[2,3-d]pyrimidin-6(7H)-one] | 111 nM | 1.4 nM | 1.4 nM | 0.4 nM
7 | CC1C(=O)Nc2ncnc(N3CC=C(c4nc(-c5cncc(F)c5)ccc4NCCN4CCCC4)CC3)c21 (stereo not shown) [Compound 26, 4-(5-Fluoro-5′-((2-(pyrrolidin-1-yl)ethyl)amino)-5″,6″-dihydro-[3,2′:6′,4″-terpyridine-]-1″(2″H)-yl)-5-methyl-5H-pyrrolo[2,3-d]pyrimidin-6(7H)-one] | 124 nM |  |  | 0.6 nM

The next lines start with the values.

Row | GI50 [1] | IC50 [2] | IC50 [3] | IC50 [4] | SMILES
8 | 102 nM | 0.5 nM | 2.6 nM | 0.4 nM | CC1(C)C(=O)Nc2ncnc(N3CCC(c4nc(-c5nc(C(F)(F)F)no5)ccc4NCCN4CCCC4)CC3)c21 [Compound 44, 5,5-Dimethyl-4-(4-(3-((2-(pyrrolidin-1-yl)ethyl)amino)-6-(3-(trifluoromethyl)-1,2,4-oxadiazol-5-yl)pyridin-2-yl)piperidin-1-yl)-5H-pyrrolo[2,3-d]pyrimidin-6(7H)-one]
9 | 82 nM | 1.7 nM | 14.5 nM | 0.5 nM | CC1(C)C(=O)Nc2ncnc(N3CCC(c4nc(-c5nnc(C(F)F)o5)ccc4NCCN4CCCC4)CC3)c21 [Compound 30, 4-(4-(6-(5-(Difluoromethyl)-1,3,4-oxadiazol-2-yl)-3-((2-(pyrrolidin-1-yl)ethyl)amino)pyridin-2-yl)piperidin-1-yl)-5,5-dimethyl-5H-pyrrolo[2,3-d]pyrimidin-6(7H)-one]
10 | 86 nM | 1.6 nM | 7.2 nM | 0.3 nM | CC(C)(C)NCCNc1ccc(-c2noc(C(F)F)n2)nc1C1CCN(c2ncnc3c2C(C)(C)C(=O)N3)CC1 [Compound 41, 4-(4-(3-((2-(Tert-butylamino)ethyl)amino)-6-(5-(difluoromethyl)-1,2,4-oxadiazol-3-yl)pyridin-2-yl)piperidin-1-yl)-5,5-dimethyl-5H-pyrrolo[2,3-d]pyrimidin-6(7H)-one]
11 | 48 nM | 1.8 nM | 1.6 nM |  | CC1C(=O)Nc2ncnc(N3CCC(c4cc(-c5cc(C(F)(F)F)nn5C)cnc4NCCN4CCCC4)CC3)c21 (stereo not shown) [Compound 27, 5-Methyl-4-(4-(5-(1-methyl-3-(trifluoromethyl)-1H-pyrazol-5-yl)-2-((2-(pyrrolidin-1-yl)ethyl)amino)pyridin-3-yl)piperidin-1-yl)-5H-pyrrolo[2,3-d]pyrimidin-6(7H)-one]
